We go through 21 compounds from ChEMBL document CHEMBL1141985, “Carbonic anhydrase inhibitors. Inhibition of the human cytosolic isozyme VII with aromatic and heterocyclic sulfonamides” (Bioorg Med Chem Lett, 2005).

Among the targets are Carbonic anhydrase 7 (Homo sapiens, UniProt P43166); Carbonic anhydrase 13 (Mus musculus, UniProt Q9D6N1); Carbonic anhydrase 1 (Homo sapiens, UniProt P00915).

Chain of Carbonic anhydrase 7 (P43166 whole entry): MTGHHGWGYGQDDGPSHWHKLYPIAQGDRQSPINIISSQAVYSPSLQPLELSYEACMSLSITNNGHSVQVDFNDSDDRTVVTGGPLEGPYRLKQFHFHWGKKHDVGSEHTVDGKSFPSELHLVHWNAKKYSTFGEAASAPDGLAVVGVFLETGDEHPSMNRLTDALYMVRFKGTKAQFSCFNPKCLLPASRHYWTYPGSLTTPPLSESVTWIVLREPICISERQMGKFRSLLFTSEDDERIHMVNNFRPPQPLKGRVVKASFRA
Chain of Carbonic anhydrase 13 (Q9D6N1 whole entry): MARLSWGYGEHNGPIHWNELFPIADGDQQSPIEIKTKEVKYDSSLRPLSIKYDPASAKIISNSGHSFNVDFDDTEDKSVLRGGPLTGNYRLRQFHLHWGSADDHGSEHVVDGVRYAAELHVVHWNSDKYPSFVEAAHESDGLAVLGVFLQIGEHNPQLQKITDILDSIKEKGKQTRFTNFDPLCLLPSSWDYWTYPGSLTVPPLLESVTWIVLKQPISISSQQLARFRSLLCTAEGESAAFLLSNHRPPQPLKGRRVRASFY
Chain of Carbonic anhydrase 1 (P00915 whole entry): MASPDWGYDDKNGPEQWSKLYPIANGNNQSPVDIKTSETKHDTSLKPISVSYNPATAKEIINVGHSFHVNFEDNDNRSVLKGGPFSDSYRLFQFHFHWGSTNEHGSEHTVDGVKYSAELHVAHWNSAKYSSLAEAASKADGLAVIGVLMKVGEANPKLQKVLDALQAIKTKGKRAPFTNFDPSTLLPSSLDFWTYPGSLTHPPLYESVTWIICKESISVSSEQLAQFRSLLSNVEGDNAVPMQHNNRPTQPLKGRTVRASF
Description for Carbonic anhydrase 13: Ki value against murine carbonic anhydrase XIII
Description for Carbonic anhydrase 7: Ki value against human carbonic anhydrase VII

Consider `NS(=O)(=O)c1nc2ccccc2s1`, for which the inhibitory constant (Ki) – broadly, a dissociation constant, usually derived from enzyme kinetics or from competition with a known ligand – on Carbonic anhydrase 7 is 4 nM. Same read-out and setting: the result for `NS(=O)(=O)c1ccc(C(=O)O)cc1` [CARZENIDE] reads 52 nM. On to `Nc1ccc(S(=O)(=O)NCc2ccc(S(N)(=O)=O)cc2)cc1`, for which the figures for the Ki at Carbonic anhydrase 13 and on Carbonic anhydrase 7 were 2 nM and 5.6 nM, respectively. Take `NS(=O)(=O)c1ccc(CCO)cc1`: at Carbonic anhydrase 7, the Ki is 66 nM.

At Carbonic anhydrase 7, `Nc1ccc(S(N)(=O)=O)cc1Br` showed a Ki of 61 nM.

On Carbonic anhydrase 7, `Nc1ccc(S(N)(=O)=O)cc1F` returned an inhibitory constant (Ki) of 75 nM. On the same count and under the same terms, the value for `Cc1ccc(S(N)(=O)=O)cc1` [P-TOLUENESULFONAMIDE] was 88 nM; that for `Nc1nccc(Nc2ccc(S(N)(=O)=O)cc2)n1` was 6.8 nM; that for `Nc1ccc(S(N)(=O)=O)cc1` [SULFANILAMIDE] was 70 nM. `Nc1ccc(S(=O)(=O)NCCc2ccc(S(N)(=O)=O)cc2)cc1`: the inhibitory constant (Ki) turned out to be 1.9 nM on Carbonic anhydrase 13 and 6.5 nM at Carbonic anhydrase 7. At Carbonic anhydrase 7, `NS(=O)(=O)c1ccc(CO)cc1` came in with a Ki of 60 nM. Consider `NNc1ccc(S(N)(=O)=O)cc1`, for which the inhibitory constant (Ki) was 89 nM at Carbonic anhydrase 7 and 28000 nM on Carbonic anhydrase 1. On Carbonic anhydrase 7, `Nc1ccc(S(N)(=O)=O)cc1I` showed a Ki of 150 nM.

`NNc1ccccc1S(N)(=O)=O`: at Carbonic anhydrase 7, affinity was put at a Ki of 68 nM. `NCc1ccc(S(N)(=O)=O)cc1` [MAFENIDE] showed a Ki on Carbonic anhydrase 7 of 75 nM. Turning to `Cn1nc(S(N)(=O)=O)sc1=N`, the inhibitory constant (Ki) on Carbonic anhydrase 7 was determined as 4.3 nM. This Ki lies about 17-fold lower than the previous one. On the same count and under the same terms, the value for `Nc1ccc(S(=O)(=O)NC2NN=C(S(N)(=O)=O)S2)cc1` (stereo not given) was 7 nM; that for `Nc1ccccc1S(N)(=O)=O` was 45 nM. In the case of `NS(=O)(=O)c1nnc(-c2ccccc2Cl)s1`, the inhibition constant (Ki) at Carbonic anhydrase 7 is 5.4 nM; on Carbonic anhydrase 1 it was 690 nM. For the compound `Nc1nnc(S(N)(=O)=O)s1`, the inhibition constant (Ki) at Carbonic anhydrase 7 stood at 5.2 nM. Still for that read-out and setting: the value for `Nc1ccc(S(N)(=O)=O)cc1Cl` was 120 nM.
